Data reported in ChEMBL document CHEMBL3102722, “Diarylacylhydrazones: Clostridium-selective antibacterials with activity against stationary-phase cells” (Bioorg Med Chem Lett, 2014).
Values after ≈ are worked out from the molar mass of the structure shown. Active and inactive are the calls of the source. No cut-off for these calls is given here.

Legend:
Lacticaseibacillus casei = test: Antibacterial activity against Lactobacillus casei ATCC 334 assessed as growth inhibition after 20 to 24 hrs; format: functional
Clostridioides difficile [1] = test: Bactericidal activity against Clostridium difficile CD196 after 20 to 24 hrs; format: functional; conditions: read-out: MBC99.9
Clostridioides difficile [2] = test: Antibacterial activity against stationary phase of Clostridium difficile CD196 assessed as cell killing after 3 to 6 hrs; format: functional
Clostridioides difficile [3] = test: Antibacterial activity against Clostridium difficile CD196 assessed as growth inhibition after 20 to 24 hrs; format: functional
[4] = tested on: Bacteroides thetaiotaomicron; test: Antibacterial activity against Bacteroides thetaiotaomicron ATCC 29148 assessed as growth inhibition after 20 to 24 hrs; format: functional
Escherichia coli = test: Antibacterial activity against Escherichia coli ATCC 700927 assessed as growth inhibition after 20 to 24 hrs; format: functional
[5] = tested on: Limosilactobacillus reuteri; test: Antibacterial activity against Lactobacillus reuteri ATCC 23272 assessed as growth inhibition after 20 to 24 hrs; format: functional
Bifidobacterium longum = test: Antibacterial activity against Bifidobacterium longum ATCC BAA-999 assessed as growth inhibition after 20 to 24 hrs; format: functional
FaDu = test: Cytotoxicity against human FADU cells assessed as concentration required to decrease cell viability incubated for 24 hrs followed by compound washout measured after 18 hrs by resazurin dye-based assay
Enterococcus faecalis = test: Antibacterial activity against Enterococcus faecalis ATCC 47077 assessed as growth inhibition after 20 to 24 hrs; format: functional
Staphylococcus aureus = test: Antibacterial activity against Staphylococcus aureus 8325-4 assessed as growth inhibition after 20 to 24 hrs; format: functional
[6] = Cytotoxicity against human HepG2 cells assessed as concentration required to decrease cell viability incubated for 24 hrs followed by compound washout measured after 18 hrs by resazurin dye-based assay; conditions: read-out: Activity
Clostridium perfringens = test: Antibacterial activity against Clostridium perfringens ATCC 13124 assessed as growth inhibition after 20 to 24 hrs; format: functional
Streptococcus mutans = test: Antibacterial activity against Streptococcus mutans ATCC 700610 assessed as growth inhibition after 20 to 24 hrs; format: functional
Bacteroides fragilis = test: Antibacterial activity against Bacteroides fragilis ATCC 25285 assessed as growth inhibition after 20 to 24 hrs; format: functional; conditions: NCTC 9343
Clostridioides difficile [7] = test: Antibacterial activity against Clostridium difficile clinical isolate assessed as growth inhibition; format: functional
Clostridioides difficile [8] = test: Antibacterial activity against stationary phase of Clostridium difficile CD196 assessed as cell killing at 1 to 20 X MIC after 3 to 6 hrs; format: functional
Clostridioides difficile [9] = test: Antibacterial activity against Clostridium difficile UK1 clinical isolate assessed as growth inhibition after 20 to 24 hrs; format: functional
Clostridioides difficile [10] = test: Antibacterial activity against Clostridium difficile VPI clinical isolate assessed as growth inhibition after 20 to 24 hrs; format: functional
Clostridioides difficile [11] = test: Antibacterial activity against Clostridium difficile UK6 clinical isolate assessed as growth inhibition after 20 to 24 hrs; format: functional
Clostridioides difficile [12] = test: Ratio of MBC99.9 to MIC for Clostridium difficile CD196; format: functional
Clostridioides difficile [13] = test: Antibacterial activity against Clostridium difficile 10463 clinical isolate assessed as growth inhibition after 20 to 24 hrs; format: functional
[14] = Antibacterial activity against Clostridium difficile 630 clinical isolate assessed as growth inhibition after 20 to 24 hrs; format: functional, Clostridioides difficile 630; conditions: Clostridioides difficile
Clostridioides difficile [15] = test: Antibacterial activity against Clostridium difficile GC1 clinical isolate assessed as growth inhibition after 20 to 24 hrs; format: functional

| SMILES | MIC (Lacticaseibacillus casei) [µg/mL] | MBC (Clostridioides difficile [1]) [µg/mL] | MIC (Clostridioides difficile [3]) [µg/mL] | MIC [4] [µg/mL] | MIC (Escherichia coli) [µg/mL] | MIC [5] [µg/mL] | MIC (Bifidobacterium longum) [µg/mL] | Activity (FaDu) [µg/mL] | MIC (Enterococcus faecalis) [µg/mL] | MIC (Staphylococcus aureus) [µg/mL] | MCC at 24 h [6] [µg/mL] | MIC (Clostridium perfringens) [µg/mL] | MIC (Streptococcus mutans) [µg/mL] | MIC (Bacteroides fragilis) [µg/mL] | Activity (Clostridioides difficile [8]) | MIC (Clostridioides difficile [9]) [µg/mL] | MIC (Clostridioides difficile [10]) [µg/mL] | MIC (Clostridioides difficile [11]) [µg/mL] | MIC (Clostridioides difficile [13]) [µg/mL] | MIC [14] [µg/mL] | also measured |
| --- | --- | --- | --- | --- | --- | --- | --- | --- | --- | --- | --- | --- | --- | --- | --- | --- | --- | --- | --- | --- | --- |
| Cc1cc(C(=O)N/N=C/c2c(O)ccc3ccccc23)[nH]n1 | > 50 | 3.13 (≈ 10.6 µM) | 3.13 (≈ 10.6 µM) | 25 (≈ 84.9 µM) | > 50 | > 50 | > 50 | > 100 | > 50 | > 50 | > 100 | ≤ 3.13 | > 50 | > 50 |  |  |  |  |  |  | Activity (Clostridioides difficile [2]): Dose-dependent effect |
| CCc1c(Cl)c(O)c(Cl)c(O)c1C(=O)O[C@H]1[C@H](O)[C@H](OC)[C@H](OC/C2=C\C=C\C[C@H](O)/C(C)=C/[C@H](CC)[C@@H](O[C@@H]3OC(C)(C)[C@@H](OC(=O)C(C)C)[C@H](O)[C@@H]3O)/C(C)=C/C(C)=C/C[C@@H]([C@@H](C)O)OC2=O)O[C@@H]1C [FIDAXOMICIN] | > 50 |  | 0.18 (≈ 0.17 µM) | > 50 | > 50 | > 50 | ≤ 0.78 |  | 12.5 (≈ 11.8 µM) | 3.13 (≈ 2.96 µM) |  | ≤ 0.0075 | 3.13 (≈ 2.96 µM) | > 50 | inactive |  |  |  |  |  | MIC90 (Clostridioides difficile [7]): 0.008 µg/mL (≈ 0.00756 µM) |
| Cc1ccc(C(=O)N/N=C/c2c(O)ccc3ccccc23)cc1 | > 50 | 6.25 (≈ 20.5 µM) | 6.25 (≈ 20.5 µM) | 25 (≈ 82.1 µM) | > 50 | > 50 | > 50 | > 100 | > 50 | > 50 | > 100 | 1.56 (≈ 5.13 µM) | > 50 | 12.5 (≈ 41.1 µM) | Active |  |  |  |  |  |  |
| O=C(N/N=C/c1c(O)ccc2ccccc12)c1ccc(-c2ccccc2)cc1 | > 50 | 3.13 (≈ 8.54 µM) | 1.56 (≈ 4.26 µM) | > 50 | > 50 | > 50 | > 50 |  | > 50 | > 50 |  | 3.13 (≈ 8.54 µM) | > 50 | > 50 |  | 1.5 (≈ 4.09 µM) | 3 (≈ 8.19 µM) | 1.5 (≈ 4.09 µM) | 3 (≈ 8.19 µM) | 1.5 (≈ 4.09 µM) | Ratio (Clostridioides difficile [12]): 2; MIC (Clostridioides difficile [15]): 1.5 µg/mL (≈ 4.09 µM) |
| CN[C@H](CC(C)C)C(=O)N[C@H]1C(=O)N[C@@H](CC(N)=O)C(=O)N[C@H]2C(=O)N[C@H]3C(=O)N[C@H](C(=O)N[C@H](C(=O)O)c4cc(O)cc(O)c4-c4cc3ccc4O)[C@H](O)c3ccc(c(Cl)c3)Oc3cc2cc(c3O[C@@H]2O[C@H](CO)[C@@H](O)[C@H](O)[C@H]2O[C@H]2C[C@](C)(N)[C@H](O)[C@H](C)O2)Oc2ccc(cc2Cl)[C@H]1O [VANCOMYCIN] | > 50 |  | 1 (≈ 0.69 µM) | 12.5 (≈ 8.63 µM) | > 50 | > 50 | ≤ 0.78 | > 200 | 3.13 (≈ 2.16 µM) | 3.13 (≈ 2.16 µM) | > 200 | ≤ 0.78 | 1.56 (≈ 1.08 µM) | 12.5 (≈ 8.63 µM) | inactive | 1.5 (≈ 1.04 µM) | 1.5 (≈ 1.04 µM) | 0.75 (≈ 0.518 µM) | 1.5 (≈ 1.04 µM) | 0.75 (≈ 0.518 µM) | MIC (Clostridioides difficile [15]): 1.5 µg/mL (≈ 1.04 µM) |
